Test results reported in the NIST ThermoML archive (doi:10.1021/je9003178).
± gives the expanded uncertainty stated by the source.

Test: activity coefficient (dimensionless); of the first substance listed, at infinite dilution; xn = mol fraction of the nth substance listed
Details: Liquid, Chromatography, x1 = 0

Row | Compound | activity coefficient (322.65 K) | activity coefficient (343.85 K) | activity coefficient (352.65 K) | activity coefficient (332.85 K) | activity coefficient (343.15 K)
1 | CCCCCCC [heptane] + CCCCCC[N+](C)(C)C.O=S(=O)([N-]S(=O)(=O)C(F)(F)F)C(F)(F)F | 13.5 ± 0.62 | 12.3 ± 0.57 | 11.9 ± 0.55 |  | 
2 | CCCCCCC [heptane] + CCn1cc[n+](C)c1.N#CN=C=[N-] | 183 ± 8.7 |  |  | 159 ± 7.5 | 139 ± 6.6
3 | C=CCCCC [hex-1-ene] + CCCCCC[N+](C)(C)C.O=S(=O)([N-]S(=O)(=O)C(F)(F)F)C(F)(F)F | 5.8 ± 0.27 | 5.55 ± 0.25 | 5.58 ± 0.26 |  | 
4 | C=CCCCC [hex-1-ene] + CCn1cc[n+](C)c1.N#CN=C=[N-] | 43.6 ± 2 |  |  | 41.6 ± 1.9 | 39.9 ± 1.9
5 | CCCCCC [hexane] + CCCCCC[N+](C)(C)C.O=S(=O)([N-]S(=O)(=O)C(F)(F)F)C(F)(F)F | 9.81 ± 0.45 | 9.02 ± 0.41 | 8.85 ± 0.41 |  | 
6 | CCCCCC [hexane] + CCn1cc[n+](C)c1.N#CN=C=[N-] | 111 ± 5.2 |  |  | 99.6 ± 4.7 | 89.5 ± 4.2
7 | C=O [methanal] + CCCCCC[N+](C)(C)C.O=S(=O)([N-]S(=O)(=O)C(F)(F)F)C(F)(F)F | 0.228 ± 0.037 | 0.272 ± 0.036 | 0.311 ± 0.035 |  | 
8 | C=O [methanal] + CCn1cc[n+](C)c1.N#CN=C=[N-] | 0.32 ± 0.04 |  |  | 0.35 ± 0.04 | 0.37 ± 0.03
9 | CO [methanol] + CCCCCC[N+](C)(C)C.O=S(=O)([N-]S(=O)(=O)C(F)(F)F)C(F)(F)F | 1.16 ± 0.035 | 0.971 ± 0.025 | 0.956 ± 0.026 |  | 
10 | CO [methanol] + CCn1cc[n+](C)c1.N#CN=C=[N-] | 0.44 ± 0.03 |  |  | 0.42 ± 0.03 | 0.41 ± 0.03
11 | CC1CCCCC1 [methylcyclohexane] + CCCCCC[N+](C)(C)C.O=S(=O)([N-]S(=O)(=O)C(F)(F)F)C(F)(F)F | 8.67 ± 0.4 | 7.78 ± 0.36 | 7.54 ± 0.35 |  | 
12 | CC1CCCCC1 [methylcyclohexane] + CCn1cc[n+](C)c1.N#CN=C=[N-] | 73.9 ± 3.5 |  |  | 67.1 ± 3.1 | 61.3 ± 2.9
13 | CC1CCCC1 [methylcyclopentane] + CCCCCC[N+](C)(C)C.O=S(=O)([N-]S(=O)(=O)C(F)(F)F)C(F)(F)F | 6.61 ± 0.3 | 5.96 ± 0.27 | 5.83 ± 0.27 |  | 
14 | CC1CCCC1 [methylcyclopentane] + CCn1cc[n+](C)c1.N#CN=C=[N-] | 50.3 ± 2.4 |  |  | 46.5 ± 2.2 | 43.2 ± 2
15 | C[N+](=O)[O-] [nitromethane] + CCCCCC[N+](C)(C)C.O=S(=O)([N-]S(=O)(=O)C(F)(F)F)C(F)(F)F | 0.975 ± 0.025 | 0.567 ± 0.031 | 0.568 ± 0.031 |  | 
16 | C[N+](=O)[O-] [nitromethane] + CCn1cc[n+](C)c1.N#CN=C=[N-] | 0.66 ± 0.03 |  |  | 0.64 ± 0.03 | 0.63 ± 0.03
17 | CCCCCCCCC [nonane] + CCCCCC[N+](C)(C)C.O=S(=O)([N-]S(=O)(=O)C(F)(F)F)C(F)(F)F | 28.9 ± 1.3 | 24.6 ± 1.1 | 23.4 ± 1.1 |  | 
18 | CCCCCCCCC [nonane] + CCn1cc[n+](C)c1.N#CN=C=[N-] | 498 ± 24 |  |  | 446 ± 21 | 401 ± 19
19 | CCCCCCCC [octane] + CCCCCC[N+](C)(C)C.O=S(=O)([N-]S(=O)(=O)C(F)(F)F)C(F)(F)F | 19 ± 0.88 | 16.8 ± 0.78 | 16.2 ± 0.75 |  | 
20 | CCCCCCCC [octane] + CCn1cc[n+](C)c1.N#CN=C=[N-] | 290 ± 14 |  |  | 260 ± 12 | 234 ± 11
21 | CCCC(C)=O [pentan-2-one] + CCCCCC[N+](C)(C)C.O=S(=O)([N-]S(=O)(=O)C(F)(F)F)C(F)(F)F | 0.612 ± 0.031 | 0.638 ± 0.03 | 0.663 ± 0.03 |  | 
22 | CCCC(C)=O [pentan-2-one] + CCn1cc[n+](C)c1.N#CN=C=[N-] | 2.92 ± 0.13 |  |  | 2.93 ± 0.13 | 2.9 ± 0.13
23 | CCC(=O)CC [pentan-3-one] + CCCCCC[N+](C)(C)C.O=S(=O)([N-]S(=O)(=O)C(F)(F)F)C(F)(F)F | 0.563 ± 0.032 | 0.601 ± 0.031 | 0.637 ± 0.03 |  | 
24 | CCC(=O)CC [pentan-3-one] + CCn1cc[n+](C)c1.N#CN=C=[N-] | 2.81 ± 0.13 |  |  | 2.84 ± 0.13 | 2.84 ± 0.13
25 | CCCO [propan-1-ol] + CCCCCC[N+](C)(C)C.O=S(=O)([N-]S(=O)(=O)C(F)(F)F)C(F)(F)F | 1.83 ± 0.079 | 1.51 ± 0.058 | 1.41 ± 0.052 |  | 

Row | Compound | activity coefficient (322.65 K) | activity coefficient (343.85 K) | activity coefficient (352.65 K) | activity coefficient (332.85 K) | activity coefficient (343.15 K)
26 | CCCO [propan-1-ol] + CCn1cc[n+](C)c1.N#CN=C=[N-] | 1.07 ± 0.03 |  |  | 1.01 ± 0.03 | 0.97 ± 0.03
27 | CC(C)O [propan-2-ol] + CCCCCC[N+](C)(C)C.O=S(=O)([N-]S(=O)(=O)C(F)(F)F)C(F)(F)F | 1.69 ± 0.07 | 1.39 ± 0.051 | 1.33 ± 0.046 |  | 
28 | CC(C)O [propan-2-ol] + CCn1cc[n+](C)c1.N#CN=C=[N-] | 1.2 ± 0.04 |  |  | 1.14 ± 0.03 | 1.09 ± 0.03
29 | CCC=O [propanal] + CCCCCC[N+](C)(C)C.O=S(=O)([N-]S(=O)(=O)C(F)(F)F)C(F)(F)F | 0.508 ± 0.032 | 0.502 ± 0.032 | 0.505 ± 0.032 |  | 
30 | CCC=O [propanal] + CCn1cc[n+](C)c1.N#CN=C=[N-] | 1.4 ± 0.05 |  |  | 1.39 ± 0.05 | 1.37 ± 0.05
31 | c1ccncc1 [pyridine] + CCCCCC[N+](C)(C)C.O=S(=O)([N-]S(=O)(=O)C(F)(F)F)C(F)(F)F | 0.336 ± 0.035 | 0.589 ± 0.031 | 0.607 ± 0.031 |  | 
32 | c1ccncc1 [pyridine] + CCn1cc[n+](C)c1.N#CN=C=[N-] | 0.4 ± 0.03 |  |  | 1.05 ± 0.03 | 1.07 ± 0.03
33 | ClC(Cl)(Cl)Cl [tetrachloromethane] + CCCCCC[N+](C)(C)C.O=S(=O)([N-]S(=O)(=O)C(F)(F)F)C(F)(F)F | 2.42 ± 0.11 | 2.39 ± 0.11 | 2.42 ± 0.11 |  | 
34 | ClC(Cl)(Cl)Cl [tetrachloromethane] + CCn1cc[n+](C)c1.N#CN=C=[N-] | 4.49 ± 0.2 |  |  | 4.61 ± 0.21 | 4.71 ± 0.21
35 | CCCCCCCCCCCCCC [tetradecane] + CCCCCC[N+](C)(C)C.O=S(=O)([N-]S(=O)(=O)C(F)(F)F)C(F)(F)F | 159 ± 7.5 | 101 ± 4.7 | 84.7 ± 4 |  | 
36 | CCCCCCCCCCCCCC [tetradecane] + CCn1cc[n+](C)c1.N#CN=C=[N-] | 2500 ± 120 |  |  | 2330 ± 110 | 2190 ± 110
37 | C1CCOC1 [tetrahydrofuran] + CCCCCC[N+](C)(C)C.O=S(=O)([N-]S(=O)(=O)C(F)(F)F)C(F)(F)F | 0.686 ± 0.03 | 0.754 ± 0.029 | 0.808 ± 0.028 |  | 
38 | c1ccsc1 [thiophene] + CCCCCC[N+](C)(C)C.O=S(=O)([N-]S(=O)(=O)C(F)(F)F)C(F)(F)F | 0.921 ± 0.026 | 0.92 ± 0.026 | 0.941 ± 0.026 |  | 
39 | c1ccsc1 [thiophene] + CCn1cc[n+](C)c1.N#CN=C=[N-] | 1.6 ± 0.06 |  |  | 1.51 ± 0.06 | 1.53 ± 0.06
40 | Cc1ccccc1 [toluene] + CCCCCC[N+](C)(C)C.O=S(=O)([N-]S(=O)(=O)C(F)(F)F)C(F)(F)F | 1.31 ± 0.045 | 1.33 ± 0.046 | 1.38 ± 0.05 |  | 
41 | Cc1ccccc1 [toluene] + CCn1cc[n+](C)c1.N#CN=C=[N-] | 4.22 ± 0.19 |  |  | 4.21 ± 0.19 | 4.21 ± 0.19
42 | ClC(Cl)Cl [trichloromethane] + CCCCCC[N+](C)(C)C.O=S(=O)([N-]S(=O)(=O)C(F)(F)F)C(F)(F)F | 0.89 ± 0.027 | 0.929 ± 0.026 | 0.966 ± 0.026 |  | 
43 | ClC(Cl)Cl [trichloromethane] + CCn1cc[n+](C)c1.N#CN=C=[N-] | 0.76 ± 0.03 |  |  | 0.81 ± 0.03 | 0.86 ± 0.03
44 | CCCCCCCCCCCCC [tridecane] + CCCCCC[N+](C)(C)C.O=S(=O)([N-]S(=O)(=O)C(F)(F)F)C(F)(F)F | 100 ± 4.7 | 76.2 ± 3.6 | 71.5 ± 3.3 |  | 
45 | CCCCCCCCCCCCC [tridecane] + CCn1cc[n+](C)c1.N#CN=C=[N-] | 1940 ± 94 |  |  | 1780 ± 86 | 1650 ± 79
46 | CCN(CC)CC [triethylamine] + CCCCCC[N+](C)(C)C.O=S(=O)([N-]S(=O)(=O)C(F)(F)F)C(F)(F)F | 4.53 ± 0.21 | 4.83 ± 0.22 | 5.04 ± 0.23 |  | 
47 | CCN(CC)CC [triethylamine] + CCn1cc[n+](C)c1.N#CN=C=[N-] | 9.09 ± 0.42 |  |  | 35.8 ± 1.7 | 131 ± 6.2
48 | CCCCCCCCCCC [undecane] + CCCCCC[N+](C)(C)C.O=S(=O)([N-]S(=O)(=O)C(F)(F)F)C(F)(F)F | 51.2 ± 2.4 | 42 ± 2 | 39.7 ± 1.8 |  | 
49 | CCCCCCCCCCC [undecane] + CCn1cc[n+](C)c1.N#CN=C=[N-] | 1030 ± 50 |  |  | 926 ± 44 | 834 ± 40
